Reference: ChEMBL document CHEMBL5252599, “Euphohelides A-C, ent-Abietane-Type Norditerpene Lactones from Euphorbia helioscopia and Their Anti-Inflammatory Activities” (J Nat Prod, 2023)
Activity calls are given as the source filed them. No cut-off for these calls is given here.

What was measured:
RAW264.7 [1] = assay: Cytotoxicity against mouse RAW264.7 cells assessed as reduction in cell viability at 100 uM measured after 24 hrs by CCK8 assay; assay type: toxicity, cell-based; details: raw264.7, 24 h
RAW264.7 [2] = assay: Antiinflammatory activity in mouse RAW264.7 cells assessed as reduction in LPS-induced NO production pre-incubated for 2 hrs followed by LPS stimulation measured after 24 hrs by Griess method; assay type: functional, cell-based
RAW264.7 [3] = assay: Antiinflammatory activity in mouse RAW264.7 cells assessed as reduction in LPS-induced TNF-alpha production pre-incubated for 2 hrs followed by LPS stimulation measured after 24 hrs by Griess method; assay type: functional, cell-based; details: dose 5-40 µM, time 26.0 hrs
RAW264.7 [4] = assay: Antiinflammatory activity in mouse RAW264.7 cells assessed as reduction in LPS-induced IL-6 production pre-incubated for 2 hrs followed by LPS stimulation measured after 24 hrs by Griess method; assay type: functional, cell-based; details: dose 5-40 µM, time 26.0 hrs
RAW264.7 [5] = assay: Antiinflammatory activity against mouse RAW264.7 cells assessed as inhibition of LPS-induced iNOS expression at 10 uM pre-incubated for 2 hrs followed by LPS stimulation measured after 24 hrs by western blot analysis; assay type: functional, cell-based; details: time 26.0 hrs
RAW264.7 [6] = assay: Antiinflammatory activity against mouse RAW264.7 cells assessed as inhibition of LPS-induced NF-kappaB/p65 expression at 10 to 40 uM pre-incubated for 2 hrs followed by LPS stimulation measured after 24 hrs by western blot analysis; assay type: functional, cell-based; details: dose 10-40 µM, time 26.0 hrs

Compound | Activity (RAW264.7 [1]) | also measured
CC1=C2C=C3CC[C@@H]4C(C)(C)C(=O)CC[C@@]4(C)[C@]3(O)C[C@H]2OC1=O | Non-Toxic | –
CC1=C2C=C3CC[C@@H]4C(C)(C)OC(=O)C[C@@]4(C)[C@@H]3C[C@H]2OC1=O | Non-Toxic | –
CC1=C2C(=O)C3=C(C[C@H]2OC1=O)[C@]1(C)CC[C@@H](O)C(C)(CO)[C@H]1CC3 (some centres not stated) | Non-Toxic | –
CC1=C2C=C3CC[C@@H]4C(C)(C)OC(=O)[C@@]4(C)[C@@H]3C[C@H]2OC1=O | Non-Toxic | –
CC1=C2C=C3CC[C@@H]4C(C)(C)C(=O)[C@H](O)[C@@]4(C)[C@@H]3C[C@H]2OC1=O | Non-Toxic | IC50 (RAW264.7 [2]): 33 µM; Activity (RAW264.7 [3]): Dose-Dependent Effect; Activity (RAW264.7 [4]): Dose-Dependent Effect; Activity (RAW264.7 [5]): Active; Activity (RAW264.7 [6]): Active
CC1=C2C=C3CC[C@@H]4C(C)(C)[C@@H](O)CC[C@@]4(C)[C@@H]3C[C@H]2OC1=O [HELIOSCOPINOLIDE B] | Non-Toxic | –
CC1=C2C=C3CC[C@@H]4C(C)(C)C(=O)C(O)=C[C@@]4(C)[C@@H]3C[C@H]2OC1=O | Non-Toxic | –
CC1=C2C=C3CC[C@@H]4C(C)(C)[C@H](O)C(=O)C[C@@]4(C)[C@@H]3C[C@H]2OC1=O | Non-Toxic | IC50 (RAW264.7 [2]): 33.8 µM
CC1=C2C=C3CC[C@@H]4C(C)(C)[C@@H](O)CC[C@@]4(C)[C@]3(O)C[C@H]2OC1=O | Non-Toxic | –
CC1=C2C=C3CC[C@@H]4C(C)(C)[C@H](O)[C@H](O)C[C@@]4(C)[C@@H]3C[C@H]2OC1=O | Non-Toxic | –
CC1=C2C=C3CC[C@@H]4C(C)(C)[C@H](O)CC[C@@]4(C)[C@@H]3C[C@H]2OC1=O [HELIOSCOPINOLIDE A] | Non-Toxic | –
